Data: US8927717B1, “Thiochromeno[2,3-c]quinolin-12-one derivatives, preparation method and application thereof” (National Defense Medical Center, priority 2014, dated 2015)

What was measured:
Assay type in all cases: cell-based
SF-268 = conditions: SF-268
T-47D = conditions: T-47D
HS 578T = conditions: HS 578T
UACC-62 = conditions: UACC-62
SNB-19 = conditions: SNB-19
LOX IMVI = conditions: LOX IMVI
U251 = conditions: U251
DU-145 = conditions: DU-145
HOP-62 = conditions: HOP-62
60 cancer cell lines = assay: NCI 60-cell screen, SRB, whole panel (mean, delta, range)
MDA-MB-435 = conditions: MDA-MB-435
MALME-3M = conditions: MALME-3M
SN12C = conditions: SN12C
NCI-H23 = conditions: NCI-H23
HCT-15 = conditions: HCT-15
SK-MEL-28 = conditions: SK-MEL-28
SR = conditions: SR
OVCAR-8 = conditions: OVCAR-8
RXF 393 = conditions: RXF 393
SF-295 = conditions: SF-295
MOLT-4 = conditions: MOLT-4
OVCAR-5 = conditions: OVCAR-5
NCI/ADR-RES = conditions: NCI/ADR-RES
K-562 = conditions: K-562
MDA-MB-486 = conditions: MDA-MB-486
MDA-MB-231/ATCC = conditions: MDA-MB-231/ATCC
SNB-75 = conditions: SNB-75
A498 = conditions: A498
786-0 = conditions: 786-0
ACHN = conditions: ACHN
HT29 = conditions: HT29
NCI-H522 = conditions: NCI-H522
NCI-H226 = conditions: NCI-H226
KM12 = assay: cells; conditions: KM12
MCF7 = conditions: MCF7
SW-620 = conditions: SW-620
TK-10 = conditions: TK-10
A549/ATCC = conditions: A549/ATCC
UO-31 = conditions: UO-31
[1] = Homo sapiens, five dose, read-out: LC50 (the source's name)

Compound: O=c1c2cc(Cl)ccc2sc2c(NCCCNCCO)nc3ccccc3c12 [Compound N19, 10-Chloro-6-((3-((2-hydroxyethyl)amino)propyl)amino)-12H-thiochromeno[2,3-c]quinolin-12-one]
- GI50 (SF-268; Homo sapiens, five dose): 1.67 µM
- Growth percent (SF-268; 10^−5 molar): 17.28%
- TGI (SF-268; five dose): 3.35 µM
- GI50 (T-47D; Homo sapiens, T47D, five dose): 1.5 µM
- Growth percent (T-47D; 10^−5 molar): 16.26%
- TGI (T-47D; five dose): 3.43 µM
- Growth percent (HS 578T; 10^−5 molar): 64.69%
- TGI (HS 578T; five dose): 3.53 µM
- GI50 (HS 578T; Homo sapiens, five dose): 1.29 µM
- CC50 (HS 578T; [1]): 9.64 µM
- GI50 (UACC-62; Homo sapiens, five dose): 1.81 µM
- CC50 (UACC-62; [1]): 6.39 µM
- Growth percent (UACC-62; 10^−5 molar): −77.63%
- TGI (UACC-62; five dose): 3.40 µM
- GI50 (SNB-19; Homo sapiens, five dose): 1.64 µM
- Growth percent (SNB-19; 10^−5 molar): 46.07%
- TGI (SNB-19; five dose): 3.26 µM
- GI50 (LOX IMVI; Homo sapiens, five dose): 1.8 µM
- Growth percent (LOX IMVI; 10^−5 molar): −82.79%
- TGI (LOX IMVI; five dose): 3.80 µM
- GI50 (U251; Homo sapiens, U-251, five dose): 1.73 µM
- Growth percent (U251; 10^−5 molar): −66.76%
- TGI (U251; five dose): 3.22 µM
- Growth percent (DU-145; 10^−5 molar): −71.03%
- TGI (DU-145; five dose): 3.31 µM
- GI50 (DU-145; Homo sapiens, five dose): 1.76 µM
- CC50 (DU-145; [1]): 6.25 µM
- Growth percent (HOP-62; 10^−5 molar): 36.97%
- TGI (HOP-62; five dose): 2.89 µM
- GI50 (HOP-62; Homo sapiens, five dose): 1.38 µM
- GI50 (60 cancer cell lines; 60 cell, mean over panel, five dose): 1.66 µM
- CC50 (60 cancer cell lines; 60 cell, mean over panel, five dose, read-out: LC50, Mean): 9.55 µM
- Growth percent, Delta (60 cancer cell lines; delta over panel, 10^−5 molar): 75.63%
- Growth percent, Mean (60 cancer cell lines; mean over panel, 10^−5 molar): −21.33%
- TGI, Mean (60 cancer cell lines; mean over panel, five dose): 3.39 µM
- Growth percent, Range (60 cancer cell lines; range over panel, 10^−5 molar): 195.44%
- GI50 (MDA-MB-435; Homo sapiens, five dose): 1.59 µM
- CC50 (MDA-MB-435; [1]): 5.62 µM
- Growth percent (MDA-MB-435; 10^−5 molar): −88.95%
- TGI (MDA-MB-435; five dose): 2.99 µM
- GI50 (MALME-3M; Homo sapiens, five dose): 2.15 µM
- Growth percent (MALME-3M; 10^−5 molar): −34.30%
- TGI (MALME-3M; five dose): 4.33 µM
- GI50 (SN12C; Homo sapiens, five dose): 1.7 µM
- CC50 (SN12C; [1]): 6.8 µM
- Growth percent (SN12C; 10^−5 molar): 78.75%
- TGI (SN12C; five dose): 3.39 µM
- GI50 (NCI-H23; Homo sapiens, five dose): 1.89 µM
- Growth percent (NCI-H23; 10^−5 molar): 54.26%
- TGI (NCI-H23; five dose): 3.68 µM
- Growth percent (HCT-15; 10^−5 molar): −76.47%
- TGI (HCT-15; five dose): 3.25 µM
- GI50 (HCT-15; Homo sapiens, five dose): 1.61 µM
- GI50 (SK-MEL-28; Homo sapiens, five dose): 1.89 µM
- Growth percent (SK-MEL-28; 10^−5 molar): −94.33%
- TGI (SK-MEL-28; five dose): 3.56 µM
- GI50 (SR; Homo sapiens, five dose): 1.98 µM
- Growth percent (SR; 10^−5 molar): −51.40%
- TGI (SR; five dose): 4.55 µM
- GI50 (OVCAR-8; Homo sapiens, five dose): 1.75 µM
- Growth percent (OVCAR-8; 10^−5 molar): 9.89%
- TGI (OVCAR-8; five dose): 3.32 µM
- GI50 (RXF 393; Homo sapiens, five dose): 1.64 µM
- Growth percent (RXF 393; 10^−5 molar): 43.67%
- TGI (RXF 393; five dose): 3.20 µM
- GI50 (SF-295; Homo sapiens, five dose): 1.73 µM
- Growth percent (SF-295; 10^−5 molar): −93.00%
- TGI (SF-295; five dose): 3.33 µM
- GI50 (MOLT-4; Homo sapiens, five dose): 1.88 µM
- Growth percent (MOLT-4; 10^−5 molar): −47.57%
- GI50 (OVCAR-5; Homo sapiens, five dose): 1.63 µM
- CC50 (OVCAR-5; [1]): 7.53 µM
- Growth percent (OVCAR-5; 10^−5 molar): −65.05%
- TGI (OVCAR-5; five dose): 3.50 µM
- GI50 (NCI/ADR-RES; Homo sapiens, five dose): 1.82 µM
- Growth percent (NCI/ADR-RES; 10^−5 molar): 26.35%
- TGI (NCI/ADR-RES; five dose): 3.63 µM
- GI50 (K-562; Homo sapiens, K562, five dose): 1.73 µM
- CC50 (K-562; Homo sapiens, K562, five dose, read-out: LC50 (the source's name)): > 100 µM
- Growth percent (K-562; 10^−5 molar): −66.94%
- GI50 (MDA-MB-486; 60 cell, five dose): 1.06 µM
- CC50 (MDA-MB-486; 60 cell, five dose, read-out: LC50 (the source's name)): 6.2 µM
- Growth percent (MDA-MB-486; 10^−5 molar): −24.00%
- TGI (MDA-MB-486; five dose): 2.56 µM
- GI50 (MDA-MB-231/ATCC; Homo sapiens, five dose): 1.36 µM
- CC50 (MDA-MB-231/ATCC; [1]): 6.02 µM
- Growth percent (MDA-MB-231/ATCC; 10^−5 molar): −66.53%
- TGI (MDA-MB-231/ATCC; five dose): 2.86 µM
- GI50 (SNB-75; Homo sapiens, five dose): 1.28 µM
- Growth percent (SNB-75; 10^−5 molar): 23.66%
- TGI (SNB-75; five dose): 2.56 µM
- Growth percent (A498; 10^−5 molar): 61.88%
- TGI (A498; five dose): 3.62 µM
- GI50 (A498; Homo sapiens, five dose): 1.27 µM
- CC50 (A498; [1]): 15 µM
- Growth percent (786-0; 10^−5 molar): −17.60%
- TGI (786-0; five dose): 3.37 µM
- GI50 (786-0; Homo sapiens, five dose): 1.72 µM
- Growth percent (ACHN; 10^−5 molar): −96.96%
- TGI (ACHN; five dose): 3.22 µM
- GI50 (ACHN; Homo sapiens, five dose): 1.67 µM
- Growth percent (HT29; 10^−5 molar): −83.53%
- TGI (HT29; five dose): 4.00 µM
- GI50 (HT29; Homo sapiens, HT-29, five dose): 2.05 µM
- GI50 (NCI-H522; Homo sapiens, five dose): 1.85 µM
- Growth percent (NCI-H522; 10^−5 molar): −59.68%
- TGI (NCI-H522; five dose): 3.56 µM
- GI50 (NCI-H226; Homo sapiens, five dose): 1.9 µM
- Growth percent (NCI-H226; 10^−5 molar): 86.75%
- TGI (NCI-H226; five dose): 4.46 µM
- GI50 (KM12; Homo sapiens, five dose): 1.67 µM
- Growth percent (KM12; 10^−5 molar): −83.29%
- TGI (KM12; five dose): 3.31 µM
- GI50 (MCF7; Homo sapiens, five dose): 1.05 µM
- Growth percent (MCF7; 10^−5 molar): −72.49%
- TGI (MCF7; five dose): 2.60 µM
- GI50 (SW-620; Homo sapiens, five dose): 1.63 µM
- Growth percent (SW-620; 10^−5 molar): −81.48%
- TGI (SW-620; five dose): 3.30 µM
- GI50 (TK-10; Homo sapiens, five dose): 2.09 µM
- CC50 (TK-10; [1]): 6.69 µM
- Growth percent (TK-10; 10^−5 molar): −92.61%
- TGI (TK-10; five dose): 3.74 µM
- Growth percent (A549/ATCC; 10^−5 molar): −64.45%
- TGI (A549/ATCC; five dose): 3.30 µM
- GI50 (A549/ATCC; Homo sapiens, five dose): 1.76 µM
- GI50 (UO-31; Homo sapiens, five dose): 1.36 µM
- CC50 (UO-31; [1]): 6.35 µM
- Growth percent (UO-31; 10^−5 molar): 24.54%
- TGI (UO-31; five dose): 2.94 µM
